Laboratory results published in patent US9580430B2, “9H-pyrimido[4,5-B]indoles and related analogs as BET bromodomain inhibitors” (THE REGENTS OF THE UNIVERSITY OF MICHIGAN, priority 2014, dated 2017).
Read-outs that look alike come from different tables or passages of the source.

Legend:
[1] = biological target: T1, recombinant BRD4 BD1 (Homo sapiens, UniProt O60885); test: Competitive fluorescence-polarization (FP) binding assay, BRD4 BD1; settings: for Ki: read-out: Binding affinities (FP) BRD4BD1 Ki; for IC50 (nM) BRD4 BD1: probe 1.5 nM
T1 construct: for recombinant BRD4 BD1 and BRD4 BD2 proteins
Procedure, shortened: (§1)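 FP competition with FAM-labelled probe (ZBA248 or BRD-1F) against preincubated protein/probe complex; BD1 at 10 nM and BD2 at 6 nM final, in 100 mM potassium phosphate pH 6.5, 0.01% Triton X-100. 30 min, room temperature. IC50 by nonlinear regression; Ki also derived, using probe Kd from protein saturation.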

[2] = biological target: T2, recombinant BRD4 BD2 (Homo sapiens, UniProt O60885); test: Competitive fluorescence-polarization (FP) binding assay, BRD4 BD2; settings: for Ki: read-out: Binding affinities (FP) BRD4BD2 Ki; for IC50 (nM) BRD4 BD2: probe 1.5 nM
T2 construct: for recombinant BRD4 BD1 and BRD4 BD2 proteins
Procedure, shortened: as §1

[3] = tested on: MDA-MB-436; test: Cell growth inhibition, MDA-MB-436 breast cancer cells (WST-8); format: cell-based; settings: Homo sapiens, 4 days
Procedure, shortened: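 IC50 was computed from WST-8-based cell counting in MDA-MB-436 cells, with absorbance read at 450 nm.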

[4] = tested on: LNCaP; test: Cell growth inhibition, LNCaP prostate cancer cells (Cell-Titer GLO); format: cell-based; settings: Homo sapiens, read-out: Cellular data LNCaP IC50
[5] = tested on: MOLM-13; test: Cell growth inhibition, MOLM-13 leukemia cells (CellTiter-Glo); format: cell-based; settings: Homo sapiens, MOLM-13, 96 h; 4 days; read-out: IC50 (nM) MOLM-13 Cell Line (CellTiter-Glo assay)
Procedure, shortened: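 MOLM-13 leukemia cells treated with compounds; viability read by CellTiter-Glo luminescence after 10-20 min reagent incubation at room temperature. IC50 derived from luminescent signal.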

[6] = FP competitive binding, BRD4 BD1, read-out: Binding affinities (FP) BRD4BD1 IC50
[7] = FP competitive binding, BRD4 BD1
[8] = FP competitive binding, BRD4 BD2, read-out: Binding affinities (FP) BRD4BD2 IC50
[9] = FP competitive binding, BRD4 BD2
[10] = 96 h, MDA-MB-436 cells, read-out: Cellular data MDA-MB-436 IC50
[11] = competitive FP assay, protein 10 nM, probe […], read-out: IC50 (nM) BRD4 BD1
[12] = competitive FP assay, protein 6 nM, probe […], read-out: IC50 (nM) BRD4 BD2
[13] = MDA-MB-436, 96 h, read-out: IC50 (nM) MDA-MB-436 Cell Line (WST assay)

| IC50 [1, 6] [nM] | Ki [1, 7] [nM] | IC50 [2, 8] [nM] | Ki [2, 9] [nM] | IC50 [3, 10] [nM] | IC50 [4] [nM] | IC50 [1, 11] [nM] | IC50 [2, 12] [nM] | IC50 [5] [nM] | IC50 [3, 13] [nM] | Compound |
| --- | --- | --- | --- | --- | --- | --- | --- | --- | --- | --- |
| 11.8 | 1.6 | 5.9 | 1.2 | 15 | 21 | – | – | – | – | COc1cc2c(cc1-c1c(C)noc1C)[nH]c1cncc(Nc3cc(C4CC4)nn3C)c12 [Cpd. No. 323, N-(3-Cyclopropyl-1-methyl-1H-pyrazol-5-yl)-7-(3,5-dimethylisoxazol-4-yl)-6-methoxy-9H-pyrido[3,4-b]indol-4-amine] |
| 129 | 30 | 43 | 10 | 67 | 534 | – | – | – | – | COc1c(-c2c(C)noc2C)cc2[nH]c3nc(C)nc(N(C)c4cc(C5CC5)nn4C)c3c2c1F [Cpd. No. 306, N-(3-cyclopropyl-1-methyl-1H-pyrazol-5-yl)-7-(3,5-dimethylisoxazol-4-yl)-5-fluoro-6-methoxy-N,2-dimethyl-9H-pyrimido[4,5-b]indol-4-amine] |
| 10 | 3 | 10.6 | 2.6 | 268 | 105 | – | – | – | – | COc1cc2c(cc1-c1c(C)noc1C)[nH]c1nc(C)nc(Nc3cc(C4CC4)nn3CCN3CCOCC3)c12 [Cpd. No. 284, N-(3-cyclopropyl-1-(2-morpholinoethyl)-1H-pyrazol-5-yl)-7-(3,5-dimethylisoxazol-4-yl)-6-methoxy-2-methyl-9H-pyrimido[4,5-b]indol-4-amine] |
| 5.2 | 1.5 | 4.9 | 1 | 37 | 20 | – | – | – | – | COc1cc2c(cc1-c1c(C)noc1C)[nH]c1nc(N)nc(Nc3cc(C4CC4)nn3C3CC3)c12 [Cpd. No. 291, N4-(1,3-dicyclopropyl-1H-pyrazol-5-yl)-7-(3,5-dimethylisoxazol-4-yl)-6-methoxy-9H-pyrimido[4,5-b]indole-2,4-diamine] |
| > 5000 | – | 850 | 342 | 1190 | 1160 | – | – | – | – | COc1c(-c2c(C)noc2C)cc2[nH]c3nc(C)nc(Nc4cc(C5CC5)nn4C)c3c2c1F [Cpd. No. 305] |
| 23 | 5 | 25 | 5.3 | 181 | 106 | – | – | – | – | COc1cc2c([nH]c3nc(C)nc(N(C)c4cc(C5CC5)nn4C)c32)c(F)c1-c1c(C)noc1C [Cpd. No. 308, N-(3-cyclopropyl-1-methyl-1H-pyrazol-5-yl)-7-(3,5-dimethylisoxazol-4-yl)-8-fluoro-6-methoxy-N,2-dimethyl-9H-pyrimido[4,5-b]indol-4-amine] |
| – | – | – | – | – | – | 119 | 161 | 504 | 1420 | COc1cc2c(cc1-c1c(C)noc1C)[nH]c1nc(C)nc(Nc3cn(C)cn3)c12 [Cpd. No. 166, 7-(3,5-dimethylisoxazol-4-yl)-6-methoxy-2-methyl-N-(1-methyl-1H-imidazol-4-yl)-9H-pyrimido[4,5-b]indol-4-amine] |
| – | – | – | – | – | – | 49.1 | 40.6 | 77.5 | 84.8 | COc1cc2c(cc1-c1c(C)noc1C)[nH]c1nc(C)nc(Nc3cc(C(F)(F)F)nn3C(C)C)c12 [Cpd. No. 22, 7-(3,5-Dimethylisoxazol-4-yl)-N-(1-isopropyl-3-(trifluoromethyl)-1H-pyrazol-5-yl)-6-methoxy-2-methyl-9H-pyrimido[4,5-b]indol-4-amine] |
| – | – | – | – | – | – | 47 | 55 | 115 | 152 | COc1cc2c(cc1-c1c(C)noc1C)[nH]c1nc(C)nc(Nc3cccc4ccncc34)c12 [Cpd. No. 223, 7-(3,5-dimethylisoxazol-4-yl)-N-(isoquinolin-8-yl)-6-methoxy-2-methyl-9H-pyrimido[4,5-b]indol-4-amine] |
| – | – | – | – | – | – | 69 | 38 | 101 | 222 | COc1cc2c(cc1-c1c(C)noc1C)[nH]c1nc(C)nc(Nc3ccc4cc[nH]c4c3)c12 [Cpd. No. 233, 7-(3,5-dimethylisoxazol-4-yl)-N-(1H-indol-6-yl)-6-methoxy-2-methyl-9H-pyrimido[4,5-b]indol-4-amine] |
| – | – | – | – | – | – | 5.6 | 1.3 | 30.2 | 57.6 | COc1cc2c(cc1-c1c(C)noc1C)[nH]c1nc(C)nc(Nc3c(C)cnn3C3CCCC3)c12 [Cpd. No. 135, N-(1-Cyclopentyl-4-methyl-1H-pyrazol-5-yl)-7-(3,5-dimethylisoxazol-4-yl)-6-methoxy-2-methyl-9H-pyrimido[4,5-b]indol-4-amine] |
| – | – | – | – | – | – | 11.4 | 10.6 | 38.8 | 26 | COc1cc2c(cc1-c1c(C)noc1C)[nH]c1nc(C)nc(Nc3cc(C)nn3C3CCC3)c12 [Cpd. No. 119, N-(1-Cyclobutyl-3-methyl-1H-pyrazol-5-yl)-7-(3,5-dimethylisoxazol-4-yl)-6-methoxy-2-methyl-9H-pyrimido[4,5-b]indol-4-amine] |
| – | – | – | – | – | – | 10.1 | 18.8 | 5.1 | 33.7 | COc1cc2c(cc1-c1c(C)noc1C)[nH]c1nc(C)nc(Nc3c(C)nn4ccccc34)c12 [Cpd. No. 15, 7-(3,5-Dimethylisoxazol-4-yl)-6-methoxy-2-methyl-N-(2-methylpyrazolo[1,5-a]pyridin-3-yl)-9H-pyrimido[4,5-b]indol-4-amine] |
| – | – | – | – | – | – | 460 | 395 | 15000 | 2430 | COc1cc2c(cc1-c1c(C)noc1C)[nH]c1nc(C)nc(NC3CCCCC3)c12 [Cpd. No. 112, N-cyclohexyl-7-(3,5-dimethylisoxazol-4-yl)-6-methoxy-2-methyl-9H-pyrimido[4,5-b]indol-4-amine] |
| – | – | – | – | – | – | 1410 | 619 | 56 | 618 | COc1cc2c(cc1-c1c(C)noc1C)[nH]c1nc(C)nc(Nc3cncc(Cl)c3)c12 [Cpd. No. 106, N-(5-chloropyridin-3-yl)-7-(3,5-dimethylisoxazol-4-yl)-6-methoxy-2-methyl-9H-pyrimido[4,5-b]indol-4-amine] |
| – | – | – | – | – | – | 10.1 | 14.2 | 13.2 | 59.6 | COc1cc2c(cc1-c1c(C)noc1C)[nH]c1nc(C)nc(Nc3c(C(C)C)nn(C)c3C)c12 [Cpd. No. 194, 7-(3,5-dimethylisoxazol-4-yl)-N-(3-isopropyl-1,5-dimethyl-1H-pyrazol-4-yl)-6-methoxy-2-methyl-9H-pyrimido[4,5-b]indol-4-amine] |
| – | – | – | – | – | – | 76 | 13 | 171 | 380 | COc1cc2c(cc1-c1c(C)noc1C)[nH]c1nc(C)nc(Nc3c(-c4ccccc4)noc3C)c12 [Cpd. No. 98, N-(7-(3,5-dimethylisoxazol-4-yl)-6-methoxy-2-methyl-9H-pyrimido[4,5-b]indol-4-yl)-5-methyl-3-phenylisoxazol-4-amine] |
| – | – | – | – | – | – | 10 | 7.5 | 32.7 | 52.5 | COc1cc2c(cc1-c1c(C)noc1C)[nH]c1nc(C)nc(Nc3c(C)cnn3C(C)(C)C)c12 [Cpd. No. 196, N-(1-(tert-butyl)-4-methyl-1H-pyrazol-5-yl)-7-(3,5-dimethylisoxazol-4-yl)-6-methoxy-2-methyl-9H-pyrimido[4,5-b]indol-4-amine] |
| – | – | – | – | – | – | 166 | 116 | 2080 | 330 | COc1cc2c(cc1-c1c(C)noc1C)[nH]c1nc(C)nc(Nc3cn(C)nc3C(F)(F)F)c12 [Cpd. No. 179, 7-(3,5-dimethylisoxazol-4-yl)-6-methoxy-2-methyl-N-(1-methyl-3-(trifluoromethyl)-1H-pyrazol-4-yl)-9H-pyrimido[4,5-b]indol-4-amine] |
| – | – | – | – | – | – | 13.7 | 7.7 | 26 | 39.2 | CCn1nc(C(F)(F)F)cc1Nc1nc(C)nc2[nH]c3cc(-c4c(C)noc4C)c(OC)cc3c12 [Cpd. No. 146, 7-(3,5-Dimethylisoxazol-4-yl)-N-(1-ethyl-3-(trifluoromethyl)-1H-pyrazol-5-yl)-6-methoxy-2-methyl-9H-pyrimido[4,5-b]indol-4-amine] |
| – | – | – | – | – | – | 13 | 8 | 71 | 123 | COc1cc2c(cc1-c1c(C)noc1C)[nH]c1nc(C)nc(Nc3cccc(N(C)C)c3)c12 [Cpd. No. 230, N1-(7-(3,5-dimethylisoxazol-4-yl)-6-methoxy-2-methyl-9H-pyrimido[4,5-b]indol-4-yl)-N3,N3-dimethylbenzene-1,3-diamine] |
| – | – | – | – | – | – | 70.1 | 69.9 | 357 | 511 | COc1cc2c(cc1-c1c(C)noc1C)[nH]c1nc(C)nc(Nc3c(C)cnn3C3CC3)c12 [Cpd. No. 197, N-(1-cyclopropyl-4-methyl-1H-pyrazol-5-yl)-7-(3,5-dimethylisoxazol-4-yl)-6-methoxy-2-methyl-9H-pyrimido[4,5-b]indol-4-amine] |
